Assay results: PMC6934184, “Selective DNA-PKcs inhibition extends the therapeutic index of localized radiotherapy and chemotherapy” (The Journal of Clinical Investigation, 2019)

Biological target: T1, MELK (Homo sapiens, UniProt Q14680)
T1 construct: purchased Thermo Fisher Scientific (Life Technologies) SelectScreen
Experiment: SelectScreen Z'LYTE
Assay type: biochemical
Summary of the method: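 NU5455 was profiled across the SelectScreen Broad panel of kinase activity and binding assays. Z'LYTE reactions such as CSF1R ran at apparent Km ATP, while the Adapta CAMK1 assay used ATP listed as 10. Values are given as percent.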

T1 sequence (Q14680 whole entry): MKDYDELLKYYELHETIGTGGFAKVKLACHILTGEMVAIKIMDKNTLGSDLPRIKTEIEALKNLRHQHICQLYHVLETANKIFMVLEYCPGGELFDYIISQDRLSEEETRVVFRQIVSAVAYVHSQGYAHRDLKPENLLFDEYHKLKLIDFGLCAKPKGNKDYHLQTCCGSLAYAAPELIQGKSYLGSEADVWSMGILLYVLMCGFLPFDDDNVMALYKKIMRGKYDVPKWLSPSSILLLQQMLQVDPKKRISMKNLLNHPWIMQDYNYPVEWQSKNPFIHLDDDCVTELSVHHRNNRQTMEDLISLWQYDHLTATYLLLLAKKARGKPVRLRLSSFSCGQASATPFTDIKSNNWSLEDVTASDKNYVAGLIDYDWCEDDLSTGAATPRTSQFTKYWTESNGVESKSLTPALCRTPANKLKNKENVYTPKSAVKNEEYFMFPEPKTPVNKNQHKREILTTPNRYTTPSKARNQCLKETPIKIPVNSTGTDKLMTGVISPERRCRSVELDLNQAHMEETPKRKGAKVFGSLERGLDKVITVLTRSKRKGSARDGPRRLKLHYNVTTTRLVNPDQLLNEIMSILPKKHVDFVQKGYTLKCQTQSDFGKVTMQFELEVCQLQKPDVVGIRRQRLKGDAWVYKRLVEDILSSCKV

`CN(C(=O)CN1CCOCC1)c1ccc2sc3c(-c4cccc5c(=O)cc(N6CC7CCC(C6)O7)oc45)cccc3c2c1` [NU5455] gave an inhibition at 1 µM of -11.8%.
